One assay has as its target T1, human ADORA1 (Homo sapiens, UniProt P30542).
T1 sequence (P30542 1-326): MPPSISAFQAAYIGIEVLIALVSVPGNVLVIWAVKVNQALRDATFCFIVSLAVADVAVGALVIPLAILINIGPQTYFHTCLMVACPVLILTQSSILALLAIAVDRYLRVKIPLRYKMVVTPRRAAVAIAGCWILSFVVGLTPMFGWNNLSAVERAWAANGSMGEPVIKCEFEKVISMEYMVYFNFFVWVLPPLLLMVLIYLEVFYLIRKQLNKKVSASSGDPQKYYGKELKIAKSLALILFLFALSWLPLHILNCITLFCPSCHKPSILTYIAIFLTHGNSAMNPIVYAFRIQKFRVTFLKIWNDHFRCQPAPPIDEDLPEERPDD
Description: GloSensor cAMP inhibition assay in ADORA1 transiently transfected HEK293T cells. It is filed as cell-based. The following applies: for RLU: replicates (1)-(4). The protocol:
β-arrestin is an important GPCR adaptor protein that mediates several receptor processes including signaling, desensitization, and trafficking. […] GPCR-mediated β-arrestin recruitment for a panel of 320 human GPCRs was studied in transiently transfected HTLA cells treated with 10 µM compound. The results for all 320 GPCRs tested are summarized in Supplementary Data 1. […] ADORA1 activation by an agonist results in Gαi protein binding, an inhibition of adenylate cyclase and, therefore, a decrease in the cAMP concentration.
Experiments to analyze the cAMP response in RXFP3, RXFP4, and ADORA1 transiently transfected HEK293T cells was performed in the National Institute of Mental Health’s Psychoactive Drug Screening Program, Contract #HHSN-271-2018-00023-C (NIMH PDSP).
ADORA1 activation. cAMP in HEK293T cells transiently transfected with human
ADORA1 was induced by treatment with 0.1 µM of isoproterenol. cAMP inhibition is
Results are reported as raw
RLU values and represent the mean ± SEM of 4 technical replicates.
(1 picture or pasted object on this page, not shown here)

For assay [1], the target named is chimera RXFP1-2 (extracellular domain of RXFP1, transmembrane domain of RXFP2) (Homo sapiens, UniProt Q8WXD0). The experiment in a line: HTRF cAMP assay in HEK293T cells transiently transfected with chimera RXFP1-2. It is filed as cell-based. To be noted: for Emax: HEK-293T. On the procedure: (§1) Fig. 2 6641 is an allosteric agonist of RXFP2. a HEK-RXFP2 cells co-treated with serial dilutions of INSL3 B dimer antagonist and 30 nM INSL3 or 0.28 µM 6641. HTRF cAMP dose-response inhibition curves were normalized to activity without antagonist co-treatment as 0% inhibition. b HTRF cAMP assay in HEK293T cells transiently transfected with WT or chimeric receptors. Chimera RXFP2-1 contains the extracellular domain of RXFP2 and the transmembrane domain of RXFP1, while chimera RXFP1-2 contains the extracellular domain of RXFP1 and the transmembrane domain of RXFP2. For each receptor, cAMP response induced by INSL3 and 6641 was normalized to FSK (2 µM) as 100% efficacy and DMSO vehicle as 0% efficacy. Emax and EC50 were calculated using four parameter nonlinear fit dose-response curves. Results are expressed as mean ± SEM of 3 independent experiments. Diagrams of the chimeric receptors were produced using GPCRdb.org[58], [59].
(§2) Complementary RXFP2-1 and RXFP1-2 chimeric receptors were used to further investigate the involvement of the RXFP2 extracellular and transmembrane domains on 6641 activity. RXFP2-1 has the extracellular domain of RXFP2 and transmembrane domain of RXFP1, and RXFP1-2 is its complement.
(§3) The HTRF Gs dynamic cAMP assay kit (CisBio, Bedford, MA) was used to measure intracellular cAMP accumulation in HEK293T cells (ATCC, Manassas, VA)[56]. […] The cell stock was verified mycoplasma free and authenticated by ATCC. Transient transfection was accomplished by treating cells in a 6-well plate with a mixture of 2 μg plasmid and 6 μL Lipofectamine 2000 (Invitrogen, Waltham, MA) per manufacturer’s protocol and incubating overnight. For cAMP measurement in 96-well format, HEK293T cells stably transfected with human RXFP2 (HEK-RXFP2), human RXFP1 (HEK-RXFP1), mouse Rxfp1 (HEK-Rxfp1) or transiently transfected with human RXFP1-RXFP2 chimeric receptors were seeded between 7500 and 30,000 cells per well, depending on cell line responsiveness, in serum-free DMEM medium and incubated overnight at 37 °C, 5% CO2. After 18 h, cells were treated with a titration of compound, 2 μM forskolin, or DMSO vehicle. Control wells were also treated with a titration of INSL3 (Phoenix Pharmaceuticals, Burlingame, CA) or human recombinant relaxin 2 (Peprotech, Cranbury, NJ). For the RXFP2 antagonist experiment, cells were co-treated with 0.28 μM compound or 30 nM INSL3 and a titration of the INSL3 B dimer antagonist[38],[39]. For the INSL3 allosteric modulation experiment, cells were co-treated with 0.025, 0.0025, or 0.00025 μM of compound and a titration of INSL3. Cells were incubated for 1 h at 37 °C, 5% CO2, and then kit cAMP-d2 and anti-cAMP antibody were added per manufacturer protocol. Plates were incubated for 1 h at room temperature and the signal was read on a CLARIOstar plate reader (BMG Labtech, Ortenberg, Germany) at 665 and 620 nm emission wavelengths.
In general terms: Time-resolved FRET reads energy transfer from a long-lived donor to a nearby acceptor.

In assay [2] the test system is chimera RXFP1-2 (extracellular domain of RXFP1, transmembrane domain of RXFP2). The description is as above. It is filed as cell-based, human. The protocol: as §1, §2, §3
Setting [3] is: 6641, individual experiments, read-out: EC50 (1)-(3).

Several values for one entry are separate records, joined by “and”; a condition that tells them apart may be missing. Equal values may be shown once. Read-outs that look alike come from different tables or passages of the source.

Sequence of chimera RXFP1-2 (extracellular domain of RXFP1, transmembrane domain of RXFP2) (Q8WXD0 417-754 limits assumed, change not shown): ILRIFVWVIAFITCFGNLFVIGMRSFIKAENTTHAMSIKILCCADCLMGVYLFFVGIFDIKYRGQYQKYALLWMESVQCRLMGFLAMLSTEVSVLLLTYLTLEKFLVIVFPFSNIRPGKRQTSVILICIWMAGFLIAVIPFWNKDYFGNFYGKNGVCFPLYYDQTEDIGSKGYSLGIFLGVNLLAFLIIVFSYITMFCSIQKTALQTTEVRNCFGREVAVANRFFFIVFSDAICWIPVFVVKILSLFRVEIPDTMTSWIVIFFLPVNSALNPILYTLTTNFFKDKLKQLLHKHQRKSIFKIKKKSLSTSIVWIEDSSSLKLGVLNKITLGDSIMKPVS
Sequence of chimera RXFP1-2 (extracellular domain of RXFP1, transmembrane domain of RXFP2) (Q9HBX9 1-409, change not shown, further chain): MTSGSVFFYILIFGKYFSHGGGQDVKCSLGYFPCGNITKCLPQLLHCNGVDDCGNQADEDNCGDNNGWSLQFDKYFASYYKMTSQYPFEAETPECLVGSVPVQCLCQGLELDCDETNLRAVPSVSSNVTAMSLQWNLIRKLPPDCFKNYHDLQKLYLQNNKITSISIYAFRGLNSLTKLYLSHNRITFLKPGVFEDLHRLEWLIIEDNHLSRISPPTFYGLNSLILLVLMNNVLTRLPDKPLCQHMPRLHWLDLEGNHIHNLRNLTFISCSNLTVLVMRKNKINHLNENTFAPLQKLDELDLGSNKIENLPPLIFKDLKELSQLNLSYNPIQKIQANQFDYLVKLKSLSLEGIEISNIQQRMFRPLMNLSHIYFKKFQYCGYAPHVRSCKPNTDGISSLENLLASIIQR
Sequence of chimera RXFP1-2 (extracellular domain of RXFP1, transmembrane domain of RXFP2) (Homo sapiens, UniProt Q8WXD0) (Q8WXD0 417-754 limits assumed, stated change not applied): as the sequence (Q8WXD0 417-754 limits assumed, change not shown) above
Sequence of chimera RXFP1-2 (extracellular domain of RXFP1, transmembrane domain of RXFP2) (Homo sapiens, UniProt Q8WXD0) (Q9HBX9 1-409, stated change not applied, further chain): as the sequence (Q9HBX9 1-409, change not shown, further chain) above

For orientation: EC50 means the concentration at which the effect is half-maximal. The Emax is the size of the effect at its maximum, as opposed to the concentration needed. `O=C1Nc2ccc(-c3cc(C(F)(F)F)cc(C(F)(F)F)c3)cc2C(=O)N2CCN(C(=O)COc3ccc(OC(F)(F)F)cc3I)C[C@@H]12` [compound 6641]: the RLU on human ADORA1 (Log [M] -5) was 501.695 RLU and 432.184 RLU and 479.802 RLU; at human ADORA1 (Log [M] -5.52), 440.941 RLU and 426.71 RLU and 354.463 RLU and 361.031 RLU; on human ADORA1 (Log [M] -6) it was 417.406 RLU and 427.258 RLU and 437.11 RLU and 429.447 RLU; at human ADORA1 (Log [M] -6.52), 436.015 RLU and 453.53 RLU and 363.767 RLU and 397.155 RLU; on human ADORA1 (Log [M] -7) it was 393.323 RLU and 486.917 RLU and 461.192 RLU and 440.394 RLU; on human ADORA1 (Log [M] -7.52) it was 405.912 RLU and 426.71 RLU and 325.454 RLU and 420.142 RLU. For the same molecule, the RLU at human ADORA1 (Log [M] -8) was 517.02 RLU and 436.015 RLU and 373.619 RLU and 451.34 RLU; at human ADORA1 (Log [M] -8.52), 377.126 RLU and 431.072 RLU and 331.699 RLU and 385.644 RLU; at human ADORA1 (Log [M] -9), 420.424 RLU and 419.005 RLU and 360.091 RLU and 409.777 RLU; on human ADORA1 (Log [M] -9.52), 407.648 RLU and 406.938 RLU and 409.777 RLU and 342.346 RLU. At human ADORA1 (cAMP induced by 0.1 µM isoproterenol), the “cAMP inhibition in ADORA1-HEK293T transfected cells” value is on record as “failed to detect any significant changes”. Further, the EC50 in assay [1] (setting [3]) was 19 nM and 14 nM; in assay [2] (setting [3]) it was 17 nM. In addition, the Emax in assay [1] (individual experiments, FSK (2 µM) = 100% efficacy, read-out: Emax (1)-(3)) was 96.5%; in assay [1] (mean (± SEM) of 3, FSK (2 µM) = 100% efficacy, read-out: Emax (AVERAGE)), 96.47 ± 0.43%. Also, the “Emax (1)-(3)” value in assay [2] (individual experiments, FSK (2 µM) = 100% efficacy) was 95.72% and 97.22%.
